# Reference: US20090203585A1, “CAPREOMYCIN DERIVATIVES AND THEIR USE AS ANTIBACTERIALS” (priority 2006, published 2009)
# Columns and labels:
# [1] = system: MRSA (Methicillin resistant Staphylococcus aureus, ATCC33591); test: MIC determination in MRSA; type: cell-based
# Description: Cation Adjusted Mueller Hinton Broth (Teknova #M5860); MRSA (Methicillin resistant Staphylococcus aureus, ATCC33591). Test compounds: all compounds were dissolved in PBS at 10 mg/mL and stored at −20° C.
# The method used for determination of MIC's follows the procedure described by the Clinical Laboratory Standards Institute (CLSI). A standardized inoculum of MRSA was prepared per CLSI methods yielding a final cell concentration of 5×10 (5) CFU/mL. 10× compound dilutions were prepared by performing 2 fold serial dilutions in Cation Adjusted Mueller Hinton Broth. The starting and ending concentrations were 640 μg/mL and 1.25 μg/mL, respectively for final assay concentrations of 64 µg/mL and 0.125 μg/mL. 10 μL of the 10× compound dilutions were added to 90 μL of the MRSA cell suspension in microplate wells. Plates were incubated in a 35° C. incubator for approximately 20 hours.
# Clostridium difficile = test: Activity against Clostridium difficile; type: cell-based; conditions: relative to corresponding capreomycin IB phenyl urea analog
# mycobacteria = conditions: cited from earlier work
# [2] = system: other genera of bacteria (Gram-positive, Gram-negative); conditions: cited from earlier work
Molecule,activity against MRSA [1],fold more active against Clostridium difficile than the corresponding capreomycin IB phenyl urea analogs (Clostridium difficile),activity against mycobacteria (mycobacteria),activity against other genera of bacteria [2],efficacy against most Gram-positive bacteria (Staphylococcus) or Gram-negative bacteria (Escherichia coli) [2]
C[C@@H]1NC(=O)[C@@H](N)CNC(=O)[C@H](C2CCNC(=N)N2)NC(=O)/C(=C/NC(=O)Nc2cccc(-c3ccccc3)c2)NC(=O)[C@H](CN)NC1=O (some centres unmarked) [Compound 73],active,4 fold,,,
Capreomycin,,,potent activity,little activity,not efficacious
